Test results as given in patent US20140023611A1 (priority 2010, published 2014).

Key:
[1] = test system: Uptake of Phosphorus from the Intestine; assay: In vivo co-dosing in chow (urine P out / P consumed); details: Rattus norvegicus, feed or water; rats, compound in chow; mean drug dose 74 mg/kg/day; read-out: Mean % inhibition Urine Pout/P consumed
Description: Male, 7-week-old Sprague-Dawley rats (Charles-River laboratories international, Hollister, Calif.) were allowed to acclimate for a minimum of 3 days. The experiment was initiated by switching animals to a synthetic diet (0.6% phosphorus and 0.6% calcium, Harlan Teklad TD.84122) for four days. After this time, the animals were placed into metabolic cages for daily monitoring of food and water consumption, as well as urine and fecal collections. Test compounds were incorporated into the powdered diet listed above containing 3% chocolate flavoring (w/w, BioServ #7345) at 1.3 mg test compound per gram of diet to achieve an average daily nominal dose of 100 mg/kg/day. The actual dose received by each animal was later determined by measuring prepared diet consumption and body weight. Urine samples were collected in three daily periods from 24-48, 48-72, and 72-96 hours of drug dosing. Averaging these three 24 h periods allows for the more representative measurements of urination, fecal excretion, food consumption and water uptake for each animal. Phosphorus levels in the urine were determined by anion exchange chromatography using a Dionex ICS-3000 ion chromatography system. Urine samples were diluted 1:500 or 1:1000 and injected onto an IonPac AS18 analytical column (2×250 mm) using a potassium hydroxide eluent. Elution of urine phosphate ions was monitored via conductivity detector and reported as ppm relative to a standard ion solution containing phosphate. Daily urinary P output relative to the P consumed in the prepared diet for each animal was calculated. The percentage inhibition of phosphorus absorption was estimated by determining the reduction of this ratio compared to the control group (animals with no drug in chow). The differences between the means of control and treated groups were evaluated by t tests. In all experiments, one group was always included that had Renvela powder blended into their chow at 0.9% targeting a dose of 750 mg/kg.

[2] = Determination of compound Cmax and AUC after oral gavage (plasma LC-MS/MS); format: in vivo, Sprague-Dawley rats; details: Sprague-Dawley, rat, plasma, po, Structure (I) examples
Procedure, shortened: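 Sprague-Dawley rats dosed by oral gavage at nominal 2.5 or 10 mg/kg; blood drawn at 0.5, 1, 2 and 4 h into K2EDTA. Plasma protein-precipitated with acetonitrile plus internal standard and analysed by LC-MS/MS against a plasma standard curve to derive Cmax and AUC.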

[3] = target: T1, rat NaP2b (SLC34A2) (Rattus norvegicus, UniProt Q9JJ09); assay: Inhibition of NaP2b-mediated Pi (33P) uptake in transfected HEK293 cells, rat NaP2b; format: cell-based; details: 33P Pi uptake, 0.1 mM phosphate, value given as pIC50 range
T1 construct: host or cells: HEK293
T1 sequence (Q9JJ09 1-695): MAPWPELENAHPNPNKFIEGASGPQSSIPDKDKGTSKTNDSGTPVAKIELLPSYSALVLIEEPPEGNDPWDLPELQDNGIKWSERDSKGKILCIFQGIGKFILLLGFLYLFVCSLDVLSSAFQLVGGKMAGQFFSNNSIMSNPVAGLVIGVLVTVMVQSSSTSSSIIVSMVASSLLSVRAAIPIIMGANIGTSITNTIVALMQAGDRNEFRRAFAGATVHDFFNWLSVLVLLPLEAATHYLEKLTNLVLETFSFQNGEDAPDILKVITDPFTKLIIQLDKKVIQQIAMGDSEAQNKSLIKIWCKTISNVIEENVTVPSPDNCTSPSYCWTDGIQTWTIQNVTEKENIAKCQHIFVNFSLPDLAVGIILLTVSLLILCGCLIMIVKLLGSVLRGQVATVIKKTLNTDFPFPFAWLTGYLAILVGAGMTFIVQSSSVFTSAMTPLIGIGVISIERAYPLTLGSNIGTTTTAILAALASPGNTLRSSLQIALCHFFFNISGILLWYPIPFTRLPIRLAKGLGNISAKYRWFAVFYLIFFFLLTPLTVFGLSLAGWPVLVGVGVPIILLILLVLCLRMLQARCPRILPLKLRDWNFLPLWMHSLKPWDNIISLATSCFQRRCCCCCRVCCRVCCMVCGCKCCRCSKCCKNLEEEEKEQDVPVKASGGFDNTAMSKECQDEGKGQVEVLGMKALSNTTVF
Procedure, shortened: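 HEK293 cells were transiently transfected with NaP2b cDNA using Lipofectamine and grown near confluence. Compounds were tested at twelve concentrations from 0.1 nM to 30 uM in duplicate, and 33P-phosphate uptake was counted by scintillation after lysis. Results are expressed as pIC50.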

[4] = target: T2, human NaP2b (SLC34A2) (Homo sapiens, UniProt O95436); assay: Inhibition of NaP2b-mediated Pi (33P) uptake in transfected HEK293 cells, human NaP2b; format: cell-based; details: read-out: pIC50 range for human NaP2b (converted)
T2 construct: host or cells: HEK293
T2 sequence (O95436 1-690): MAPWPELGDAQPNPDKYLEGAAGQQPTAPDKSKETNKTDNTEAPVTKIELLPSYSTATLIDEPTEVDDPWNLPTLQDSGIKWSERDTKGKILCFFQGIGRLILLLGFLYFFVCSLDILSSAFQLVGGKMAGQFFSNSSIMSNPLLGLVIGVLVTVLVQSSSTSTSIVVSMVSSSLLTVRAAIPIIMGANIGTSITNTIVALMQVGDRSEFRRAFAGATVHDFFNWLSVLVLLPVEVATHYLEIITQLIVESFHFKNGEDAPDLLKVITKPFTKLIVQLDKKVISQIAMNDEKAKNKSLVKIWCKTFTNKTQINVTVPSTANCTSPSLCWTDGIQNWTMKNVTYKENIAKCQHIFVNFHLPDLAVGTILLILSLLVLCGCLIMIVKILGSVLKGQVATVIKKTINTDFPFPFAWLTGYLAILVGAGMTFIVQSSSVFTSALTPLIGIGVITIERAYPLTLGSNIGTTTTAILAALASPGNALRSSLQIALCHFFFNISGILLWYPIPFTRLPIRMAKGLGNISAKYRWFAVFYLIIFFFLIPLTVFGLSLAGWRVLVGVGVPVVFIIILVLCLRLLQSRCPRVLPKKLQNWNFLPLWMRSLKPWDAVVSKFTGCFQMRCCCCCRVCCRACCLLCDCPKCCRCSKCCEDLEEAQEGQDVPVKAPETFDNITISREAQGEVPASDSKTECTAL
Procedure, shortened: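 HEK293 cells transiently transfected with human NaP2b (Thr inserted after residue 37, N39D), endogenous PiT transport pharmacologically silenced. Sodium or choline buffer, pH 7.4, with 100 uM KH2PO4, 33P orthophosphate and compound (0.1 nM–30 uM, twelve concentrations, duplicate). 3-30 min at room temperature, scintillation counting, pIC50 derived.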

[5] = Stability of compounds in simulated gastric fluid (SGF); format: in vitro ADME; details: simulated gastric fluid (3 mg/mL pepsin), incubation time 6 hr, relative to t=0
Procedure, shortened: (§1)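 Compounds at […] were incubated 3 or 6 hr in USP simulated gastric fluid with 3 mg/mL pepsin or simulated intestinal fluid with 3 mg/mL pancreatin. Remaining compound was quantified by HPLC-UV or HPLC-MS peak area % and reported as percent of the t=0 level in the same medium.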

[6] = Stability of compounds in simulated intestinal fluid (SIF); format: in vitro ADME; details: simulated intestinal fluid (3 mg/mL pancreatin), incubation time 6 hr, relative to t=0
Procedure, shortened: as §1

[7] = Table 15, actual oral dose 3-15 mg/kg, plasma 0.5-4 h
[8] = Table 15, actual oral dose 15-40 mg/kg, plasma 0.5-4 h

SMILES | AUC [2, 7] [ng·h/mL] | Cmax [2, 7] [ng/mL] | IC50 [3] [nM] | IC50 [4] [nM] | % remaining, SGF [5] | % remaining, SIF [6] | AUC [2, 8] [ng·h/mL] | Cmax ([2]; Table 15, plasma 0.5-4 h) [ng/mL] | inhibition in vivo at 74 mg/kg/day [1] [%]
CCN(CC)c1ccc(NC(=O)c2cccc(C(=O)N(C)CCN3CCOCC3)c2)c(-c2cc(C(=O)NCc3cccc(C(F)(F)F)c3)ccn2)c1 [Example 25] | < 30 | < 30 | – | – | – | – | – | – | 10 to 30
CCN(CC)c1ccc(NC(=O)c2cccc(CSCCOCCOCCOCCOCCC(=O)N(CCO)CCO)c2)c(-c2cc(C(=O)N[C@H]3CCCc4ccccc43)ccn2)c1 [Example 160, (S)-2-(5-(diethylamino)-2-(3-(20-hydroxy-18-(2-hydroxyethyl)-17-oxo-5,8,11,14-tetraoxa-2-thia-18-azaicosyl)benzamido)phenyl)-N-(1,2,3,4-tetrahydronaphthalen-1-yl)isonicotinamide] | < 10 | < 10 | < 1000 | < 1000 | >80% | 40-60% | – | – | –
CCN(CC)c1ccc(NC(=O)c2cccc(COCCOCCOCCOCCOCCOCCO)c2)c(-c2cc(C(=O)NCc3cccc(C(F)(F)F)c3)ccn2)c1 [Example 168, 2-(5-(diethylamino)-2-(3-(19-hydroxy-2,5,8,11,14,17-hexaoxanonadecyl)benzamido)phenyl)-N-(3-(trifluoromethyl)benzyl)isonicotinamide] | < 30 | < 10 | < 1000 | < 1000 | >80% | >80% | – | – | –
O=C(O)CCOCCOCCOCCOCCCc1cccc(C(=O)Nc2ccc(Cl)cc2-c2cc(C(=O)N[C@H]3CCCc4ccccc43)ccn2)c1 [Example 253, (S)-16-(3-(4-(chloro)-2-(4-(1,2,3,4-tetrahydronaphthalen-1-ylcarbamoyl)pyridin-2-yl)phenylcarbamoyl)phenyl)-4,7,10,13-tetraoxahexadecan-1-oic acid] | – | – | < 1000 | < 1000 | 60-80% | >80% | < 10 | < 10 | –
COCCNC(=O)[C@H]1CCCN(C(=O)c2cccc(C(=O)Nc3ccc(N4CCCCC4)cc3-c3cc(C(=O)N[C@H]4CCCc5ccccc54)ccn3)c2)C1 [Example 254, 2-(2-(3-((S)-3-(2-methoxyethylcarbamoyl)piperidine-1-carbonyl)benzamido)-5-(piperidin-1-yl)phenyl)-N—((S)-1,2,3,4-tetrahydronaphthalen-1-yl)isonicotinamide] | < 10 | < 10 | < 1000 | < 1000 | >80% | >80% | – | – | –

Further lines, with some results ahead:

AUC [2, 7] [ng·h/mL] | Cmax [2, 7] [ng/mL] | IC50 [3] [nM] | IC50 [4] [nM] | % remaining, SGF [5] | % remaining, SIF [6] | AUC [2, 8] [ng·h/mL] | Cmax ([2]; Table 15, plasma 0.5-4 h) [ng/mL] | SMILES | inhibition in vivo at 74 mg/kg/day [1] [%]
> 50 | > 50 | 1000 to 7940 | 1000 to 7940 | >80% | >80% | – | – | CCN(CC)c1ccc(NC(=O)c2cccc(C(=O)N(C)CCN3CCC[C@H]3C(=O)NCCOCCOCCOCCOCCOCCOCCOCCOC)c2)c(-c2cc(C(=O)N[C@H]3CCCc4ccccc43)ccn2)c1 [Example 196, N^1-(2-((S)-2-(2,5,8,11,14,17,20,23-octaoxapentacosan-25-ylcarbamoyl)pyrrolidin-1-yl)ethyl)-N^3-(4-(diethylamino)-2-(4-(((S)-1,2,3,4-tetrahydronaphthalen-1-yl)carbamoyl)pyridin-2-yl)phenyl)-N-methylisophthalamide] | –
– | – | < 1000 | < 1000 | 60-80% | >80% | < 30 | < 30 | CN(CCOCCOCCOCCC(=O)O)C(=O)Cc1cccc(SCc2cccc(C(=O)Nc3ccc(Cl)cc3-c3cc(C(=O)N[C@H]4CCCc5ccccc54)ccn3)c2)c1 [Example 239, (S)-1-(3-(3-(4-chloro-2-(4-(1,2,3,4-tetrahydronaphthalen-1-ylcarbamoyl)pyridin-2-yl)phenylcarbamoyl)benzylthio)phenyl)-3-methyl-2-oxo-6,9,12-trioxa-3-azapentadecan-15-oic acid] | –
< 10 | < 10 | < 1000 | < 1000 | >80% | 20-40% | – | – | CCN(CC)c1ccc(NC(=O)c2cccc(CCCOCCOCCOCCOCCC(=O)NC(CO)(CO)CO)c2)c(-c2cc(C(=O)NCc3cccc(C(F)(F)F)c3)ccn2)c1 [Example 281] | –
< 30 | < 10 | < 1000 | < 1000 | <20% | >80% | – | – | CCN(CC)c1ccc(NC(=O)c2cccc(C(=O)N(C)CCN(C)CCOCCOCCOCCNC(=O)OC(C)(C)C)c2)c(-c2cc(C(=O)N[C@H]3CCCc4ccccc43)ccn2)c1 [Example 339, (S)-tert-Butyl 1-(3-(4-(diethylamino)-2-(4-(1,2,3,4-tetrahydronaphthalen-1-ylcarbamoyl)pyridin-2-yl)phenylcarbamoyl)phenyl)-2,5-dimethyl-1-oxo-8,11,14-trioxa-2,5-diazahexadecan-16-ylcarbamate] | –
